According to PubChem BioAssay AID691 (PCMD, 2007):
In brackets after ≈: the same amount, converted by molar mass. Results filed as inconclusive are left out. Activity calls are given as the source filed them. The rule behind the calls is not given here.

Test system: Zebrafish larvae lipid metabolism, fluorescent lipid gallbladder/intestine
Experiment: larval zebrafish lipid processing modulation – whole organism, confirmation, fluorescent lipid, gallbladder/intestine, dose response (AID 691)

## Cc1csc(NC(=O)Nc2cccc(Cl)c2)n1
  MIC: > 100 µM (inactive)

## CCN(CC)c1ccc(C2Nc3cccc4cccc(c34)N2)c(O)c1
  MIC: > 100 µM (inactive)

## COC(=O)c1ccc(Cn2nnc3c(sc4nc(N5CCOCC5)c5c(c43)CCCC5)c2=O)o1
  MIC: > 100 µM (inactive)

## CCOC(=O)CSc1nnc2n(Cc3ccccc3)c(=O)c3c4c(sc3n12)CCC4
  MIC: > 100 µM (inactive)

## Cc1c(N=Cc2c(O)n(C3CCCCC3)c(=O)[nH]c2=O)c(=O)n(-c2ccccc2)n1C
  MIC: > 100 µM (inactive)

## CCN1CC2=C(OC(N)=C(C#N)C2c2ccccc2)/C(=C\c2ccccc2)C1 (stereo not given)
  MIC: > 100 µM (inactive)

## CCNC(=O)c1cc2c(=O)n3cccc(C)c3nc2n(CCc2ccccc2)c1=N
  MIC: > 100 µM (inactive)

## CCCCOc1ccccc1C(=O)NCCCC(=O)O
  MIC: > 100 µM (inactive)

## CS(=O)(=O)Nc1ccc([N+](=O)[O-])cc1Oc1ccccc1
  MIC: > 100 µM (inactive)

## CCN(CC)C(=O)c1sc2nc(-c3cccs3)cc(-c3cccs3)c2c1N
  MIC: 12.5 µM (≈ 5.17 µg/mL)

## Cc1c(N=Cc2c(O)n(CCc3ccc(F)cc3)c(=O)[nH]c2=O)c(=O)n(-c2ccccc2)n1C
  MIC: > 100 µM (inactive)

## c1ccc(-c2nnc3sc(Cc4cccs4)nn23)cc1
  MIC: 18.8 µM (≈ 5.59 µg/mL)

## CNc1oc(-c2ccccc2Cl)nc1C#N
  MIC: > 100 µM (inactive)

## COc1ccccc1-c1nnc2sc(C3CCCCC3)nn12
  MIC: > 100 µM (inactive)

## N#Cc1ccc(CSc2nnc(-c3ccccn3)n2-c2ccccc2)cc1
  MIC: > 100 µM (inactive)

## COc1ccc2c(c1)c(C(=O)CN1CCOCC1)c(C)n2C
  MIC: > 100 µM (inactive)

## OCCN1CCN(CCCN2c3ccccc3Sc3ccc(C(F)(F)F)cc32)CC1
  MIC: > 100 µM (inactive)

## N#CCSc1nc2c(c(=O)n1Cc1ccco1)C1(CCCC1)Cc1ccccc1-2
  MIC: 25 µM (≈ 10.1 µg/mL)

## Cc1ccc2nc(C3CCN(CC(=O)N4CCCCCC4)CC3)[nH]c2c1
  MIC: > 100 µM (inactive)

## CN(C)[C@@H]1C(=O)C(C(N)=O)=C(O)[C@@]2(O)C(=O)C3=C(O)c4c(O)ccc(Cl)c4[C@@H](O)[C@H]3C[C@@H]12
  MIC: > 100 µM (inactive)

## Cc1ccc(CNC(=O)c2cc3c(=O)n4ccccc4nc3n(Cc3ccco3)c2=N)cc1
  MIC: 62.5 µM (≈ 27.5 µg/mL)

## CCOC(=O)CSc1nc(N)c(C(=O)Nc2ccc(N(C)C)cc2)s1
  MIC: 25 µM (≈ 9.51 µg/mL)

## COc1cccc(-c2nnc3sc(-c4ccco4)nn23)c1
  MIC: > 100 µM (inactive)

## CCOC(=O)C1CCCN(c2nc3ccccc3nc2C(C#N)C(=O)OCCOC)C1 (stereo not given)
  MIC: > 100 µM (inactive)

## Cc1nnc(NC(=O)C2CCCO2)s1 (stereo not given)
  MIC: > 100 µM (inactive)

## Clc1ccc(OCc2nnc(SCCN3CCCCC3)n2Cc2ccco2)cc1
  MIC: 75 µM (≈ 32.5 µg/mL)

## O=C1c2ccccc2-c2onc3ccc(NCc4ccco4)c1c23
  MIC: 3.91 µM (≈ 1.24 µg/mL)

## COc1ccc(C)cc1-n1nnnc1SC/C(O)=C(\C#N)c1nc2ccccc2[nH]1
  MIC: > 100 µM (inactive)

## N#Cc1c(NCCN)nc(NCc2ccccc2)c2c1CCN(Cc1ccccc1)C2
  MIC: > 100 µM (inactive)

## CC(=O)Nc1nnc(S(N)(=O)=O)s1
  MIC: > 100 µM (inactive)

## COC(=O)c1cc(Br)c(=O)n(CCc2ccc(F)cc2)c1
  MIC: > 100 µM (inactive)

## COCCCN1C(=O)C(O)=C(C(C)=O)C1c1ccccn1 (stereo not given)
  MIC: > 100 µM (inactive)

## N#CC1=C(SCC(=O)c2ccc(Cl)cc2)NC2=C(C(=O)CCC2)C1c1ccco1 (stereo not given)
  MIC: > 100 µM (inactive)

## COC(=O)C1=C(N)Oc2cc(C)oc(=O)c2C1c1ccncc1 (stereo not given)
  MIC: > 100 µM (inactive)

## c1coc(-c2nnc3sc(-c4cccs4)nn23)c1
  MIC: 9.37 µM (≈ 2.57 µg/mL)

## COc1ccc(OC)c(Nc2nc(-c3cccs3)cs2)c1
  MIC: 56.2 µM (≈ 17.9 µg/mL)

## Cn1c(C(=O)OC(C(=O)NC2CCCC2)c2cccnc2)cc2sccc21 (stereo not given)
  MIC: > 100 µM (inactive)

## CC1Oc2ccccc2N(CC(=O)NCc2cccs2)C1=O (stereo not given)
  MIC: > 100 µM (inactive)

## c1ccc(CN2CCN(c3ncnc4c3[nH]c3ccccc34)CC2)cc1
  MIC: 31.3 µM (≈ 10.7 µg/mL)

## CNc1ccccc1-c1nc2ccccc2n(C)c1=O
  MIC: 15.6 µM (≈ 4.15 µg/mL)

## COC(=O)c1sccc1NC(=O)c1ccco1
  MIC: > 100 µM (inactive)

## CC1(C)Cc2c(C#N)c(NCc3ccco3)nc(-c3ccco3)c2CO1
  MIC: > 100 µM (inactive)

## CC(C)N=c1cc2n(-c3ccc(Cl)cc3)c3ccccc3nc-2cc1Nc1ccc(Cl)cc1
  MIC: 6.25 µM (≈ 2.96 µg/mL)

## CC1(c2cnc(Nc3ccccc3)s2)CCC(=O)O1 (stereo not given)
  MIC: > 100 µM (inactive)

## Cc1cccc2c1NC(C)CC2C (stereo not given)
  MIC: > 100 µM (inactive)

## CCCC1CC(=O)OC1(C)C(=O)CSc1n[nH]c(-c2ccccc2)n1 (stereo not given)
  MIC: > 100 µM (inactive)

## COc1ccc(C2CC(C(F)(F)F)n3ncc(C(=O)Nc4cccc(O)c4)c3N2)cc1OC (stereo not given)
  MIC: > 100 µM (inactive)

## CCOC(=O)CCc1c(C)c(C#N)c2[nH]c3ccccc3n2c1=O
  MIC: > 100 µM (inactive)

## C=CCn1c(N)c(C(=O)Nc2ccccc2)c2nc3ccccc3nc21
  MIC: > 100 µM (inactive)

## Cc1ccc2[nH]c3c(c2c1)CN(C(=O)CN1CCCc2ccccc21)CC3
  MIC: > 100 µM (inactive)
